Test results from EP4592276A1, “NOVEL ACY[…] OF PSILOCIN AND RELATED 4-HYDROXYT[…] BY AN EFFICIENT […] APPROACH” (Universität Heidelberg, priority 2024, dated 2025).
“And” between values parts separate entries of the source, which are not always exact repeats. Equal values may be shown once. Where a name gives a salt, the structure may show the parent alone.

Assays:
[1] = Drug release kinetics (prodrug cleavage) in human blood plasma; format: in vitro ADME; settings: 37 °C; for half-life: 10 % human plasma in PBS, 50 µM; for half-life at 50 µM: 100 % human plasma
Procedure: Pooled human blood plasma (Biowest, France) and sterile Dulbecco's phosphate buffered saline (PBS) pH 7.3 (Sigma-Aldrich, Germany) were used for all experiments. The blood plasma was aliquoted upon receipt and stored at -20 °C. 10 % solutions were prepared by thawing a plasma aliquot at 2-8 °C, distributing it into plastic vials and diluting with the appropriate volume of sterile PBS. The 10 % and 100 % plasma aliquots were stored at -20 °C and thawed at 2-8 °C directly before the assay was performed. In a thermoblock, a plasma aliquot and 10 µl of a 5 mM prodrug solution in DMSO were prewarmed to 37 °C for 10 min in separate plastic vials. Then, 1000 µl of the prewarmed plasma sample was added to the prodrug solution, and 9×100 µl samples were withdrawn at appropriate time intervals. The enzymatic reaction was quenched by immediate mixing of the samples (100 µl) with acetonitrile (200 µl). Blank samples were prepared by mixing 10 % or 100 % plasma (100 µl) with acetonitrile (200 µl), respectively. Samples of the initial reaction mixture were prepared by adding the 5 mM prodrug solution (1 µl) to a blank sample.
Centrifugation (13,000 rpm, 3 min) of the quenched samples afforded clear supernatants which were transferred to 96 well U-bottom polypropylene plates (Greiner Bio-One, Germany). Analyte quantifications were performed on a Jasco HPLC system equipped with a UV detector and an RP-18 column (Chromolith® Performance RP-18e, 100x4.6 mm) using one of the gradients listed in Table 3. Prodrug degradation was monitored using undiluted supernatant and a 10 min chromatographic method. […] For all samples, the injection volume was 40 µL and the flow was set to 1.0 mL/min. […] Table 3: HPLC settings for quantitative analysis of plasma samples.

[2] = Stability of prodrugs in methanol (1H NMR); format: physicochemical; settings: CD3OD, ambient temperature, within 18 days
From the text: The stability of the exemplary carboxylic ester 8b in methanol was studied by dissolving a few milligrams of the fumarate ester in CD3OD at ambient temperature and measuring ^1H NMR spectra in appropriate time intervals.

[3] = Passive membrane permeation assay (PAMPA); format: in vitro ADME; settings: pre-coated PAMPA plate, PBS pH 7.4, 200 µM, 25 °C; for R (mass retention) / Pe: 5 h; for Pe / Papp at 5 h, 200 µM: mean ± standard deviation; for Papp at 5 h, 200 µM: read-out: Pe
Procedure: The passive membrane permeability was evaluated with a pre-coated PAMPA plate system (BD Gentest, BD Bioscience, Germany) following the guidelines of the manufacturer and a previous literature report (cf. Kühl et al. Eur. J. Med. Chem. 2022, 240, 114585). Phosphate-buffered saline (PBS) pH 7.4 (Sigma-Aldrich, Germany) was used for all experiments. Analyte concentrations were determined on a Jasco HPLC system equipped with a UV detector and an RP-18 column (Chromolith® Performance RP-18e, 100x4.6 mm) using one of the gradients listed in Table 2. For all samples, the injection volume was 40 µl. Table 2: HPLC settings for the analysis of PAMPA samples.
Prior to performing the assay, the PAMPA plate was warmed to room temperature for 0.5 h. In the donor plate, 300 µL of the 200 µM compound solutions in PBS (4 % dimethyl sulfoxide (DMSO)) were dispensed in triplicate, and in the acceptor plate, 200 µL of PBS buffer were added to all wells. The plates were combined, and the system was incubated at 25 °C for 5 h. Upon completion of the incubation, donor and acceptor plate were separated. The wells were homogeneously mixed with a pipette, and a 100 µl sample of each donor and acceptor well was transferred to 96 well U-bottom polypropylene plates (Greiner Bio-One, Germany) for quantitative HPLC analysis.

[4] = Prodrug stability in human whole saliva; format: in vitro ADME; settings: 37 °C, mean of fresh samples of three individuals, classified into three groups
Procedure: Freshly collected saliva and 5 mM stock solutions of the analytes in DMSO were prewarmed to 37 °C for 10 min. Then, 700 µl prewarmed saliva was added to 7 µl of the prodrug stock, and the mixture was incubated at 37 °C. Samples (100 µL) were taken at selected time points (0, 10, 20, 40, 60 min; 2 h or 24 h) and immediately quenched with acetonitrile (200 µl). Blank samples were prepared by mixing saliva (100 µl) with acetonitrile (200 µl). Centrifugation (3,000 rpm, 5 min) of the quenched samples afforded clear supernatants which were transferred to 96 well U-bottom polypropylene plates (Greiner Bio-One, Germany). Analyte quantifications were performed on a Jasco HPLC system equipped with a UV detector and an RP-18 column (Chromolith® Performance RP-18e, 100x4.6 mm) using the gradients listed in Table 4. Samples that gave rise to asymmetric peaks inadequate for quantification were diluted (1:1) with H2O (+0.1 % TFA). The injection volume was 40 µl and the flow was set to 1.0 mL/min. UV detection was performed at 286 nm. […] Table 4: HPLC settings for quantitative analysis of saliva samples.

HuH-7 cells = test: Cell viability in HuH-7 cells (CellTiter-Blue); format: cell-based, human; settings: 50 µM, mean of triplicates ± standard deviation
Procedure: In order to assess cytotoxic effects of compounds in cell culture, HuH-7 cells were incubated in presence of these compounds in a 96-well plate for 2 h or 24 h. In order to generate a calibration curve for cell viability, a serial dilution (1:2 dilution series) of cells was seeded into control wells. Measurement of cell viability is based on the assay development using CellTiter-Blue reagent (Resazurin, blue color), which is reduced to resofurin (pink color) by viable cells.
Prior to performing the assay, a 96-well assay plate (F-bottom, transparent, Greiner) containing HuH-7 cells (20,000 cells per well) in culture medium was prepared. […] CellTiter-Blue reagent (1-2 mL) was diluted with cell culture medium (10 mL) in a Falcon tube and prewarmed to 37 °C. The 96-well plate was removed from the incubator, the medium aspirated using a vacuum pump and 100 µL of diluted CellTiter-Blue reagent was added to each well.

[5] = Equilibrium solubility (shake-flask); settings: 35.5 °C, pH 6.8, aqueous buffer, thermodynamic from solid
Procedure: For each reported solubility result, one shake-flask experiment was carried out unless otherwise stated. Measurements at pH 2.0 were performed in 0.01 M HCl. Measurements at pH 6.8 were performed in a KH2PO4/K2HPO4 buffer with an ionic strength of 70 mM. For each experiment, the solid, HPLC-purified sample (1.7 - 25 mg) was suspended in 250 - 500 µL of the aqueous buffer in a glass vial. The solution containing solid excess of the sample was then capped and shaken at 220 rpm in an Infors HT Minitron incubator at a defined temperature for 6 hours. Three aliquots (3 × 70 µL) were removed with a fine pipette from each shake-flask experiment, and the saturated solution in these aliquots was separated from precipitate by centrifugation (10000 rpm, 5 min) at the assay temperature. […] The reported values are the mean of three measured concentrations. The error was estimated based on the standard deviation of the three measurements and the uncertainty of the calibration curve. Table 8: Equilibrium solubility of selected prodrugs along with references.

| SMILES | half-life [1] | initial amount of ester degraded [2] | R (mass retention) [3] | Pe [3] | Papp at 5 h, 200 µM [3] | half-life at 50 µM [4] | Cell Viability in HuH7 at 50 µM, 2 h Incubation (HuH-7 cells) | Cell Viability in HuH7 at 50 µM, 24 h Incubation (HuH-7 cells) | half-life at 50 µM [1] | solubility thermodynamic at 6 h [5] |
| --- | --- | --- | --- | --- | --- | --- | --- | --- | --- | --- |
| CCCC(=O)Oc1cccc2[nH]cc(CCN(C)CC)c12 [Compound 8b, 4-Butyryloxy-N-ethyl-N-methyltryptammonium fumarate] | 0.64 ± 0.04 min | approximately 50% | 4% | at least 8 10^-6 cm/s | 9.2 ± 0.8 ×10⁻⁶ cm/s | 15 to 60 min | 88.1 ± 6.0% | 83.7 ± 1.0% | – | – |
| CN(C)CCc1c[nH]c2cccc(OCOC(=O)C(C)(C)C)c12 [Compound 15a, 4-Pivaloyloxymethyloxy-N,N-dimethyltryptammonium fumarate] | – | – | 4% | 9.1 ± 0.5 10^-6 cm/s | – | 15 to 60 min | 61.6 ± 6.0% | 61.6 ±18.4% | > 300 min | – |
| CCCCCC(=O)Oc1cccc2[nH]cc(CCN(C)CC)c12 [Compound 8c, 4-Hexanoyloxy-N-ethyl-N-methyltryptammonium fumarate, reference compound] | 0.66 ± 0.13 min | – | 7% | – | 11.8 ± 1 ×10⁻⁶ cm/s | < 15 min | 30.2 ± 1.0% | 74.3 ± 8.0% | – | – |
| CN(C)CCc1c[nH]c2cccc(OC(=O)C3CC3)c12 [Compound 19c, 4-(cyclopropanecarbonyloxy)-N,N-dimethyltryptamine] | – | – | – | – | – | – | – | – | – | 32600 µM and 8900 µg/mL |
| CCN(C)CCc1c[nH]c2cccc(OCOC(=O)C(C)(C)C)c12 [Compound 15c, 4-Pivaloyloxymethyloxy-N-ethyl-N-methyltryptammonium fumarate] | – | – | 2% | 9.7 ± 0.6 10^-6 cm/s | – | < 15 min | 48.3 ± 16.1% | 47.1 ± 10.4% | > 300 min | – |
| CCN(C)CCc1c[nH]c2cccc(OC(C)=O)c12 [Compound 8a, 4-Acetoxy-N-ethyl-N-methyltryptammonium fumarate, reference compound] | 0.69 ± 0.14 min | – | 4% | – | 5.6 ± 0.8 ×10⁻⁶ cm/s | 15 to 60 min | 88.7 ± 3.0% | 85.4 ± 3.6% | – | – |
